How the values were obtained:
[1] = target: T1, human lysosomal β-galactosidase (β-Gal) (Homo sapiens, UniProt P16278); test: β-Gal inhibition in human leukocyte homogenates; format: biochemical; details: compounds 1 mM; human leukocytes extracts
T1 construct: in leukocytes isolated from healthy donors (controls); endogenous in cells; host or cells: human leukocytes from healthy donors, disrupted by sonication (crude homogenate)
T1 sequence (P16278 29-677): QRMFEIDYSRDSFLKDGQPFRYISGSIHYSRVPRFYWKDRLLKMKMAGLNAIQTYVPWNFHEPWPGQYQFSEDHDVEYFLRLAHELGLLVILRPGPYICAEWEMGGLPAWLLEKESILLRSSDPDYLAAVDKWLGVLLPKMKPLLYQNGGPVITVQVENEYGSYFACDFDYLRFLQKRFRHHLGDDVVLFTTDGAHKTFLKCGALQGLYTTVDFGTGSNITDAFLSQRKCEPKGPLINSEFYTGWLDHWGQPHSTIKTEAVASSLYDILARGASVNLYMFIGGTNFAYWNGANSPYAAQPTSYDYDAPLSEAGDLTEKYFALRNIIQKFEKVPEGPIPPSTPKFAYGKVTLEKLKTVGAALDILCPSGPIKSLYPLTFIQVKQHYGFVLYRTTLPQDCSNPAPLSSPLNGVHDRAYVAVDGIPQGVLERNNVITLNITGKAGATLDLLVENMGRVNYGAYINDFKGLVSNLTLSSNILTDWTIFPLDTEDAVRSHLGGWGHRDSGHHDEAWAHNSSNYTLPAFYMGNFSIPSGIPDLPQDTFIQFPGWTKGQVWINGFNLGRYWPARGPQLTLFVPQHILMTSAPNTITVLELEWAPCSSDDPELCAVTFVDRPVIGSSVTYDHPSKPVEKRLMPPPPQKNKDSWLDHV
Description: The new compounds were screened at 1 mM concentration towards β-galactosidase (β-Gal) and β-glucosidase (GCase) in leukocytes isolated from healthy donors (controls). Isolated leukocytes were disrupted by sonication, and a Micro BCA Protein Assay Kit (Sigma–Aldrich, St. Louis, MO, USA) was used to determine the total protein amount for the enzymatic assay, according to the manufacturer’s instructions.
β-Gal activity was measured in a flat-bottomed 96-well plate. Azasugar solution (3 μL), 4.29 μg/μL leukocytes homogenate 1:10 (7 μL), and substrate 4-methylumbelliferyl β-D-galactopyranoside (1.47 mM, 20 μL, Sigma–Aldrich) in acetate buffer (0.1 M, pH 4.3) containing NaCl (0.1 M) and sodium azide (0.02%) were incubated at 37 °C for 1 h. The reaction was stopped by addition of sodium carbonate (200 μL; 0.5 M, pH 10.7) containing Triton X-100 (0.0025%), and the fluorescence 4-methylumbelliferone released by β-galactosidase activity was measured in SpectraMax M2 Microplate Reader (λex = 365 nm and λem = 435 nm; Molecular Devices LLC, San Jose, CA, US). Inhibition is given with respect to the control (without azasugar). Data are mean SD (n = 3).

[2] = target: T2, β-galactosidase EC 3.2.1.23 (Escherichia coli, UniProt P00722); test: Commercial glycosidase screening; format: biochemical; details: read-out: % Inhibition at 0.1 mM, β-galactosidase Escherichia coli
T2 construct: purchased Sigma-Aldrich or Megazyme Ltd
T2 sequence (P00722 2-1024): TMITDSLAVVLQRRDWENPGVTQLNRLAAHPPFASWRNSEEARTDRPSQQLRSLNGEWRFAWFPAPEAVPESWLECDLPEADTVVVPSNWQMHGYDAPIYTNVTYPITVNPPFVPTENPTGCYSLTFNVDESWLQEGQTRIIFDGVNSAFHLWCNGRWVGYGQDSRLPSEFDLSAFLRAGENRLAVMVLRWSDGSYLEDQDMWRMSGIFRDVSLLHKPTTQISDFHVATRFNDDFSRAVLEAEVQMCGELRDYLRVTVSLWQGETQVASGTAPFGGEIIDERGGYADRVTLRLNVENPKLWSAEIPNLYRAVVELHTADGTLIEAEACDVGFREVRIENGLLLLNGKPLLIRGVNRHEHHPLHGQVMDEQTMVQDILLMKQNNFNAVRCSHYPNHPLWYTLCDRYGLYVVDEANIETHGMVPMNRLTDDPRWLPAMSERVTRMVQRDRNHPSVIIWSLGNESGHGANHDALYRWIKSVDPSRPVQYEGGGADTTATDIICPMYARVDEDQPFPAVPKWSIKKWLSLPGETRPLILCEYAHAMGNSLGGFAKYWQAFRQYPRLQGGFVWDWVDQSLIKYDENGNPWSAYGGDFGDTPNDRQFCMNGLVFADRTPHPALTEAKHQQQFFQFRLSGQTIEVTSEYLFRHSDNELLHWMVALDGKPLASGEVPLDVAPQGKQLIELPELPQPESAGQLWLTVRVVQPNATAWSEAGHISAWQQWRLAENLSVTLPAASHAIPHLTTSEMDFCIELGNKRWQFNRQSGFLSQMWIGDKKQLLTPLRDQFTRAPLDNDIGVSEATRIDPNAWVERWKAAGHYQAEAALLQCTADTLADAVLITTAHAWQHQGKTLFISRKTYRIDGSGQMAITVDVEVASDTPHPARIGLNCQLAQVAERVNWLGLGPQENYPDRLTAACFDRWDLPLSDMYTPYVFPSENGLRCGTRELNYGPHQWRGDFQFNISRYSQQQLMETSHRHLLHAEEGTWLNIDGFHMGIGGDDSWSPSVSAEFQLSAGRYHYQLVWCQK
From the text: (§1) A panel of 12 commercial glycosidases (α-L-fucosidase EC 3.2.1.51 from Homo sapiens, α-galactosidase EC 3.2.1.22 from coffee beans, β-galactosidases EC 3.2.1.23 from Escherichia coli and Aspergillus oryzae, α-glucosidases EC 3.2.1.20 from yeast and rice, amyloglucosidase EC 3.2.1.3 from Aspergillus niger, β-glucosidase EC 3.2.1.21 from almonds, α-mannosidase EC 3.2.1.24 from Jack beans, β-mannosidase EC 3.2.1.25 from snail, β-N-acetylglucosaminidases EC 3.2.1.52 from Jack beans and bovine kidney) purchased from Sigma-Aldrich (St. Louis, MO, USA) or Megazyme Ltd. (Bray, Co. Wicklow, Ireland) was screened.
(§2) The percentage (%) of inhibition towards the corresponding glycosidase was determined in quadruplicate in the presence of 100 μM of the inhibitor on the well. Each enzymatic assay (final volume 0.12 mL) contains 0.01–0.5 units/mL of the enzyme (with previous calibration) and 4.2 mM aqueous solution of the appropriate p-nitrophenyl glycopyranoside (substrate) buffered to the optimal pH of the enzyme. Enzyme and inhibitor were preincubated for 5 min at room temperature, and the reaction started by addition of the substrate. After 20 min of incubation at 37 °C, the reaction was stopped by the addition of 0.1 mL of sodium borate solution (pH 9.8). The p-nitrophenolate formed was measured by visible absorption spectroscopy at 405 nm (Asys Expert 96 spectrophotometer, Biochrom Ltd., Cambridge, England). Under these conditions, the p-nitrophenolate released led to optical densities linear with both reaction time and concentration of the enzyme (for more details, see the Supplementary Materials). The IC50 value (concentration of inhibitor required for 50% inhibition of enzyme activity) was determined from plots of % inhibition vs. different inhibitor concentrations. Each point of the graph is the average of four measures. The standard deviation for each point has been also represented in the graph.

[3] = test system: α-glucosidase EC 3.2.1.20; test: Commercial glycosidase screening; format: biochemical, yeast; details: 0.1 mM inhibitor
From the text: as §1, §2

[4] = test system: α-glucosidase EC 3.2.1.20; test: Commercial glycosidase screening; format: biochemical, rice; details: 0.1 mM inhibitor
From the text: as §1, §2

[5] = test system: β-mannosidase EC 3.2.1.25; test: Commercial glycosidase screening; format: biochemical, snail; details: 0.1 mM inhibitor
From the text: as §1, §2

[6] = test system: β-N-acetylglucosaminidase EC 3.2.1.52; test: Commercial glycosidase screening; format: biochemical, Jack beans; details: 0.1 mM inhibitor
From the text: as §1, §2

[7] = test system: β-N-acetylglucosaminidase EC 3.2.1.52; test: Commercial glycosidase screening; format: biochemical, bovine kidney; details: 0.1 mM inhibitor
From the text: as §1, §2

Structure (SMILES): CCCCCCCC[C@]1(O)CNC[C@@H](O)[C@H]1O [compound 12, (3S, 4R, 5R)-3,4,5-Trihydroxy-3-Octyl-Piperidine]
- inhibition at 1000 µM [1]: 0%
- inhibition at 100 µM [2]: 0%
- % Inhibition at 0.1 mM, α-glucosidase yeast [3]: - (no inhibition detected)
- % Inhibition at 0.1 mM, α-glucosidase rice [4]: - (no inhibition detected)
- % Inhibition at 0.1 mM, β-mannosidase snail [5]: - (no inhibition detected)
- % Inhibition at 0.1 mM, β-N-acetylglucosaminidase Jack beans [6]: - (no inhibition detected)
- % Inhibition at 0.1 mM, β-N-acetylglucosaminidase bovine kidney [7]: - (no inhibition detected)

Structure (SMILES): CCCCCCCCCO[C@@H]1CNC[C@@H](O)[C@H]1O [compound 21, (3R, 4R, 5R)-4,5-Dihydroxy-3-(Nonyloxy) Piperidine]
- inhibition at 1000 µM [1]: 0%
- inhibition at 100 µM [2]: 0%
- % Inhibition at 0.1 mM, α-glucosidase yeast [3]: - (no inhibition detected)
- % Inhibition at 0.1 mM, α-glucosidase rice [4]: - (no inhibition detected)
- % Inhibition at 0.1 mM, β-mannosidase snail [5]: - (no inhibition detected)
- % Inhibition at 0.1 mM, β-N-acetylglucosaminidase Jack beans [6]: - (no inhibition detected)
- % Inhibition at 0.1 mM, β-N-acetylglucosaminidase bovine kidney [7]: - (no inhibition detected)

Structure (SMILES): CCCCCCCCCO[C@H]1CNC[C@@H](O)[C@H]1O [compound 9, (3S, 4R, 5R)-4,5-Dihydroxy-3-(Nonyloxy) Piperidine]
- inhibition at 1000 µM [1]: 22%

Structure (SMILES): CCCCCCCCCCCCN[C@H]1CNC[C@@H](O)[C@H]1O [compound 10, (3R, 4S, 5S)-3,4-Dihydroxy-5-(Dodecylamino) Piperidine]
- inhibition at 1000 µM [1]: 0%
- inhibition at 100 µM [2]: 0%
- % Inhibition at 0.1 mM, α-glucosidase yeast [3]: - (no inhibition detected)
- % Inhibition at 0.1 mM, α-glucosidase rice [4]: - (no inhibition detected)
- % Inhibition at 0.1 mM, β-mannosidase snail [5]: - (no inhibition detected)
- % Inhibition at 0.1 mM, β-N-acetylglucosaminidase Jack beans [6]: - (no inhibition detected)
- % Inhibition at 0.1 mM, β-N-acetylglucosaminidase bovine kidney [7]: - (no inhibition detected)

Reference: paper PMC7582770, “Synthesis of “All-Cis” Trihydroxypiperidines from a Carbohydrate-Derived Ketone: Hints for the Design of New β-Gal and GCase Inhibitors” (Molecules, 2020)
